Test results: PubChem BioAssay (NCI)
Values joined by “and” are separate entries in the source; they are usually repeats but may differ in a detail not shown here. Equal entries are not always repeated.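 Grown in 96-well plates, cells were treated for 48 hours with each compound at five concentrations. Insufficient inhibition: endpoint recorded as highest concentration tested. The concentration for 50% growth inhibition is given as GI50. TGI denotes the concentration required for complete inhibition of growth.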

Legend:
Assay in all cases: DTP human tumour cell line panel, 48 h
NCI/ADR-RES ovarian = test system: NCI/ADR-RES ovarian
HL-60(TB) leukemia = test system: HL-60(TB) leukemia
SNB-75 CNS = test system: SNB-75 CNS
HT29 colon = test system: HT29 colon
IGROV1 ovarian = test system: IGROV1 ovarian
MALME-3M melanoma = test system: MALME-3M melanoma
SK-MEL-28 melanoma = test system: SK-MEL-28 melanoma
UACC-257 melanoma = test system: UACC-257 melanoma
SR leukemia = test system: SR leukemia
SK-MEL-2 melanoma = test system: SK-MEL-2 melanoma

Row | Structure (SMILES) | GI50 (NCI/ADR-RES ovarian) | TGI (NCI/ADR-RES ovarian) | GI50 (HL-60(TB) leukemia) | TGI (HL-60(TB) leukemia) | GI50 (SNB-75 CNS) | TGI (SNB-75 CNS) | GI50 (HT29 colon) | TGI (HT29 colon) | GI50 (IGROV1 ovarian) | TGI (IGROV1 ovarian) | GI50 (MALME-3M melanoma) | TGI (MALME-3M melanoma) | GI50 (SK-MEL-28 melanoma) | TGI (SK-MEL-28 melanoma) | GI50 (UACC-257 melanoma) | TGI (UACC-257 melanoma) | TGI (SR leukemia) | GI50 (SK-MEL-2 melanoma) | TGI (SK-MEL-2 melanoma)
1 | Cc1n[nH]c(=S)n1/N=C/c1ccc(F)c(Oc2ccccc2)c1 | 33.2 µM | > 100 µM | 48.6 µM | > 100 µM | 45.1 µM | > 100 µM | 27.5 µM | > 100 µM | 62.3 µM | > 100 µM | 65.7 µM | > 100 µM | 7.1 µM | 82.6 µM | 25.4 µM | 75.3 µM | – | – | –
2 | O=C1C(=O)N(C(=O)c2ccc(Cl)c(Cl)c2)c2ccc(Cl)cc21 | – | – | – | 61.6 µM | – | > 100 µM | – | > 100 µM | – | > 100 µM | – | – | – | > 100 µM | – | – | > 100 µM | – | –
3 | Cc1cc(O)c(C(c2cccnc2)c2c(O)cc(C)[nH]c2=O)c(=O)[nH]1 | – | > 100 µM | – | > 100 µM | – | – | – | > 100 µM | – | > 100 µM | – | > 100 µM | – | > 100 µM | – | > 100 µM | > 100 µM | – | –
4 | N.N.N.N.N.N.[I-].[Os] | – | – | > 100 µM | > 100 µM | > 100 µM | > 100 µM | > 100 µM | > 100 µM | > 100 µM | > 100 µM | 38.9 µM | 96.5 µM | > 100 µM | > 100 µM | > 100 µM | > 100 µM | – | > 100 µM | > 100 µM
5 | C#CCOCn1cnc2c(=S)nc[nH]c21 | – | – | – | > 100 µM | – | 98.9 µM | – | > 100 µM | – | > 100 µM | – | > 100 µM | – | > 100 µM | – | > 100 µM | – | – | > 100 µM
6 | CC1(C)OC(C(N)=O)=C(C(N)=O)O1 | – | – | – | > 100 µM | – | > 100 µM | – | > 100 µM | – | > 100 µM | – | > 100 µM | – | > 100 µM | – | > 100 µM | > 100 µM | – | > 100 µM
7 | Cc1c(C(=O)CC(=O)C(=O)Nc2ccc(Cl)c(Cl)c2)[n+](=O)c2ccccc2n1[O-] | – | – | – | 47.4 µM | – | 48.9 µM | – | 74.5 µM | – | 50.8 µM | – | 36.5 µM | – | > 100 µM | – | 34.5 µM | – | – | 57 µM
8 | CCC(C)OC(=O)C1C2CCC(O2)C1C(=O)O (centres undefined) | – | – | – | > 100 µM | – | > 100 µM | – | > 66.2 µM | – | > 100 µM | – | > 100 µM | – | > 100 µM | – | > 100 µM | 40.3 µM | – | > 100 µM
9 | N/C(=N\N=C\c1cccs1)NO | – | – | – | > 100 µM | – | > 100 µM | – | > 100 µM | – | > 100 µM | – | > 100 µM | – | > 100 µM | – | > 100 µM | > 100 µM | – | > 100 µM
10 | COc1ccc(C(c2ccc(C(C)C)cc(=O)c2O)c2ccc3cccnc3c2O)cc1 (centres undefined) | – | – | – | 6.23 µM | – | 0.589 µM | – | 20.2 µM | – | 15.3 µM | – | 17.5 µM | – | – | – | – | 15.9 µM | – | 30.1 µM
11 | CCc1ccccc1NC(=O)CCc1n[nH]c(=S)o1 | – | – | – | > 100 µM | – | > 100 µM | – | > 100 µM | – | > 100 µM | – | > 100 µM | – | > 100 µM | – | > 100 µM | – | – | –
12 | Cc1c2c(nn1C(=O)c1nn(-c3ccc(Cl)cc3)cc1O)-c1ccccc1CC2 | 0.0495 µM | > 100 µM | 0.0507 µM | 1.12 µM | 0.0303 µM | > 100 µM | 0.226 µM | > 50.6 µM | 0.0429 µM | > 100 µM | 0.328 µM | > 74 µM | 0.293 µM | > 100 µM | 0.218 µM | 9.73 µM | – | 55.4 µM | > 100 µM
13 | CN=C1Nc2ccc(Cl)cc2C(c2ccccc2)=NN1C | – | – | – | > 100 µM | – | > 100 µM | – | > 100 µM | – | > 100 µM | – | > 100 µM | – | > 100 µM | – | > 100 µM | – | – | > 100 µM
14 | CC(=O)NC(CCCCNC(=O)N(CCCl)N=O)C(=O)NCc1ccccc1 (centres undefined) | – | – | – | > 100 µM | – | > 100 µM | – | > 100 µM | – | > 100 µM | – | > 100 µM | – | > 100 µM | – | > 100 µM | > 100 µM | – | > 100 µM
15 | CC(=O)OCc1cc(OC(C)=O)cnc1COC(C)=O | – | – | – | > 100 µM | – | > 100 µM | – | > 100 µM | – | > 100 µM | – | > 100 µM | – | > 100 µM | – | > 100 µM | > 100 µM | – | > 100 µM
16 | COc1cc(-c2cc(=O)c3ccccc3o2)ccc1N | – | – | – | 71.5 µM | – | 83.2 µM | – | > 100 µM | – | > 100 µM | – | > 100 µM | – | > 100 µM | – | > 100 µM | – | – | > 100 µM
17 | ClC1CCC2OOC1O2 (centres undefined) | – | – | – | > 100 µM | – | > 100 µM | – | > 100 µM | – | > 100 µM | – | > 100 µM | – | > 100 µM | – | > 100 µM | > 100 µM | – | > 100 µM
18 | COc1cc2nc(Sc3c([N+](=O)[O-])ncn3C)[nH]c2cc1OC | – | – | – | – | – | > 100 µM | – | > 100 µM | – | > 100 µM | – | > 100 µM | – | > 100 µM | – | 78.3 µM | 60.2 µM | – | –
19 | CC(=O)O[C@H]1C(=O)O[C@@H]2C[C@H]3C(C)=CC(=O)[C@@H](O)[C@]3(C)[C@H]3[C@@]4(O)OC[C@]32[C@@H]1[C@@H](C)[C@H]4O | 0.844 µM | 15.2 µM and 51.4 µM | – | 0.4 µM | < 0.017 µM | 0.104 µM and 0.154 µM | 0.0374 µM | 1.38 µM and 1.26 µM | < 0.01 µM | 1.4 µM and 0.247 µM | < 0.01 µM | 0.062 µM and 0.0429 µM | < 0.0104 µM | 0.0577 µM and 0.142 µM | 0.0322 µM | 0.137 µM | – | 0.0283 µM | 0.197 µM and 0.259 µM
20 | O=C(O)c1ccc(O)c(N=Nc2cc(S(=O)(=O)O)c3ccccc3c2O)c1 | – | – | – | > 100 µM | – | > 100 µM | – | > 100 µM | – | > 100 µM | – | > 100 µM | – | > 100 µM | – | > 10 µM | > 100 µM | – | > 10 µM
21 | O=c1c2ccccc2nc(-c2ccc(Br)cc2)n1NC1OC(CO)C(O)C(O)C1O (centres undefined) | – | – | – | > 100 µM | – | > 100 µM | – | > 100 µM | – | > 100 µM | – | > 100 µM | – | > 100 µM | – | > 100 µM | – | – | > 100 µM
22 | N=C1N(c2ccccc2)C(=O)C23CCCC2C13N1CCOCC1 (centres undefined) | – | – | – | > 100 µM | – | > 100 µM | – | > 100 µM | – | > 100 µM | – | > 100 µM | – | > 100 µM | – | > 100 µM | > 100 µM | – | > 100 µM
